The record followed here is patent publication US20220064238A1, “Methods And Compositions For Modifying Transcription Factor Activity by Targeting The Human Mediator Complex Using Cell Penetrating Memetic Peptides And Methods of Treating Cancer Using The Same” (The Regents of the University of Colorado, a body corporate, priority 2020, published 2022).

SMILES strings stand for the structures. Bridge positions count the residues as written; N and C are the ends. Square brackets hold non-standard residues; d marks the D form. Peptide text beside a SMILES is read from it. PEG6 = NCCOCCOCCOCCOCCOCCOCCC(=O)O; R8 = C=CCCCCCC[C@@](C)(N)C(=O)O; S5 = C=CCCC[C@](C)(N)C(=O)O

The test system of assay [1] is pol II occupancy at the p21 locus. Description: ChIP of RNA polymerase II occupancy at CDKN1A (p21). The settings on record: 3 h post-Nutlin, Ser5-phosphorylated pol II ChIP. It is filed as cell-based. The source says: FIGS. 13A-B. Summary of ChIP experiments, showing that RNA polymerase II occupancy at the p53 target gene CDKN1A (p21) is reduced in cells treated with the bivalent peptide (peptide). A) Time course following Nutlin induction, to determine ideal time point to probe pol II occupancy at the p21 locus. […] However, pol II occupancy is reduced in cells treated with the bivalent peptide. […] Pol II phosphorylated at serine-5 of its C-terminal domain was used for ChIP analysis, because this is a proxy for initiating pol II at gene promoters (start sites). Data represent biological triplicates. Similar results were observed genome-wide, using ChIP-seq, although the timing of induction across p53 target genes will vary (data not shown).

Assay [2] relates to p53 target genes in HCT116 cells. In words: RNA-Seq / GSEA in HCT116 cells, p53 pathway genes. Format: cell-based, human. On the procedure:
To circumvent this issue, we used a well-tested electroporation protocol to enhance cell uptake of the bivalent peptide (see Methods). HCT116 cells were evaluated either in the presence of bivalent peptide or vehicle (water), with or without Nutlin-3a (FIG. 3A, B). Nutlin-3a is a small molecule that activates and stabilizes p53 by inhibiting MDM2, a repressor of p53. […] After 3 h Nutlin-3a treatment (or DMSO control, ±bivalent peptide), nuclear RNA was isolated and biological replicate RNA-Seq libraries were prepared (FIG. 9A; Table 1).
A confounding issue with these experiments was that cellular uptake of the bivalent peptide could not be accurately measured and could potentially vary from experiment-to-experiment. To assess this possibility more thoroughly, we completed an additional round of RNA-Seq experiments in control vs. Nutlin-treated HCT116 cells (FIG. 9B; Table 1). These additional experiments (RNA-Seq experiment 2) were completed with a slightly modified protocol that included treatment in serum-free media as an effort to enhance peptide uptake. Importantly, the data from RNA-Seq experiment 2 (biological triplicate; FIG. 10) were consistent with the first series of biological replicates (RNA-Seq experiment 1; FIG. 3C-E) and in each case, repression of p53-dependent transcription by the bivalent peptide tracked with Nutlin induction levels (FIG. 9CE). Nutlin-induced activation of p53 target genes was inhibited in the presence of the bivalent peptide, providing further evidence that the bivalent peptide blocks p53 response in cells. However, the scope and magnitude of the effect was reduced in this second, independent set of RNA-Seq experiments (e.g. compare FIG. 3C, D & FIG. 10C, D). This broadly consistent but variable magnitude effect can also be seen from RNA-Seq reads at specific p53 target genes (RNA-Seq experiment 1, FIG. 4A, B; RNA-Seq experiment 2, FIG. 4C, D). The overall p53 response to Nutlin-3a was reduced in RNA Seq experiment 2 (GSEA p53 pathway NES=2.76 in RNA-Seq experiment 1 vs. NES=1.59 in RNASeq experiment 2), which therefore reduced the transcriptional impact of the bivalent peptide. However, we cannot rule out variable cellular uptake of the bivalent peptide as a contributing factor.
Electroporation of bivalent peptide into HCT116 cells (RNA-Seq experiment 1): Two 6-well plates (HCT116 cells) were grown to about 80% confluency. Cells were then trypsinized, washed with PBS, and resuspended in 150 μL Neon Buffer R. The cells were then split into two groups: No peptide and 10 μM peptide. The cells were then drawn into a 10 μL Neon pipet tip, electroporated and ejected into 2 mL of McCoy's 5A media without antibiotic. For each experiment, two cell electroporation aliquots were added to media containing either 0.1% DMSO (control) or 10 μM Nutlin-3a (in DMSO, to a final concentration of 0.1%). For wells containing cells electroporated with peptide, an additional 200 nM peptide was added to the well to allow for peptide uptake during the experiment. The 6-well plate was then placed back at 37° C. for 3 hours. After 3 hours, cells were scraped from the plates, transferred to a 15 mL conical vial, pelleted at 1,000×g, and washed in 10 mL phosphate buffered saline (PBS) solution. To isolate the nuclei, cells were resuspended in 10 mL lysis buffer (10 mM Tris-HCl, pH 7.4, 2 mM MgCl2, 3 mM CaCl2), 0.5% NP-40, 10% glycerol) and thoroughly mixed. The nuclei were spun down at 1,000×g for 10 minutes, the lysis buffer was removed, and 1 mL of TRIzol was added. The nuclear RNA was isolated as described in the TRIzol instructions, except an additional phenol/chloroform extraction and chloroform-only extraction were performed to reduce contaminants. RNA was precipitated and washed twice with 75% ethanol to further remove contaminants. The RNA was then converted to cDNA using the High Capacity cDNA kit from Thermo Fisher Scientific. […]

Consider `CC[C@H](C)[C@H](NC(=O)[C@H](CC(=O)O)NC(=O)[C@H](CC(=O)O)NC(=O)[C@@H]1CCCN1C(=O)[C@H](CO)NC(=O)[C@H](CC(C)C)NC(=O)CCOCCOCCOCCOCCOCCOCCNC(=O)[C@H](CCCNC(=N)N)NC(=O)[C@H](CCCNC(=N)N)NC(=O)[C@]1(C)CCCC=CCCCCCC[C@@](C)(NC(=O)[C@H](Cc2ccccc2)NC(=O)[C@H](CCCNC(=N)N)NC(=O)[C@H](CCC(=O)O)NC(=O)[C@H](CCC(N)=O)NC(=O)[C@H](CO)NC(=O)[C@H](CCCNC(=N)N)NC(C)=O)C(=O)N[C@@H](CC(=O)O)C(=O)N[C@@H](CC(C)C)C(=O)N[C@@H](Cc2c[nH]c3ccccc23)C(=O)N[C@@H](CCCCN)C(=O)N[C@@H](CCCNC(=N)N)C(=O)N[C@@H](CC(C)C)C(=O)N1)C(=O)N[C@@H](CCC(=O)O)C(=O)N[C@@H](CCC(N)=O)C(=O)N[C@@H](Cc1c[nH]c2ccccc12)C(=O)N[C@@H](Cc1ccccc1)C(=O)N[C@H](C(=O)N[C@@H](CCC(=O)O)C(=O)N[C@@H](CC(=O)O)C(N)=O)[C@@H](C)O` [bivalent peptide] (Ac-RSQERF[R8]DLWKRL[S5]RR[PEG6]LSPDDIEQWFTED-NH2; staple 7-14; N-terminus assumed), for which the “pol II occupancy at the p21 locus in peptide-treated cells” value in assay [1] was “reduced”. Further, the “GSEA p53 pathway NES, Nutlin response in peptide-treated cells” value was found to be 1.97 in assay [2] (RNA-Seq experiment 1, +Nutlin) and 0.92 in assay [2] (RNA-Seq experiment 2, +Nutlin). Besides, the “Nutlin-induced activation of p53 target genes in peptide-treated cells” value in assay [2] (electroporated 10 μM peptide, Nutlin-3a 10 μM, 3 h, HCT116) was “diminished”. Also, the “p53 activation by peptide alone” value in assay [2] (no Nutlin, vs. untreated controls, HCT116) is “modest p53 activation”.
